Data reported in patent US20060183901A1, “Crystalline form of an indazole-carboxamide compound” (THERAVANCE, INC., priority 2005, published 2006).

Assays:
[1] = molecular target: T1, human 5-HT4(c) receptor (Homo sapiens, UniProt Q13639); assay: Whole-cell cAMP accumulation flashplate assay with HEK-293 cells expressing human 5-HT4(c) receptors; assay type: cell-based; parameters: expressed in transfected cells; host or cells: HEK-293
Description: The plates were sealed and incubated at 4° C. overnight.
Potency data are reported as pEC50 values, the negative decadic logarithm of the EC50 value, where EC50 is the effective concentration for a 50% maximal response.

[2] = molecular target: human 5-HT3A receptor (Homo sapiens, UniProt P46098)
Description: Assay 2: Radioligand Binding Assay on 5-HT3A Human Receptors: Determination of Receptor Subtype Selectivity
Membrane Preparation 5-HT3A
Cells were grown in T-225 flasks or cell factories in 50% Dulbecco's Modified Eagles Medium (DMEM) (GIBCO-Invitrogen Corp., Carlsbad, Calif.: Cat #11965) and 50% Ham's F12 (GIBCO-Invitrogen Corp.: Cat #11765) supplemented with 10% heat inactivated fetal bovine serum (FBS) (Hyclone, Logan, Utah: Cat #SH30070.03) and (50 units) penicillin-(50 μg) streptomycin/ml (GIBCO-Invitrogen Corp.: Cat #15140) in a 5% CO2, humidified incubator at 37° C.
Cells were grown to roughly 70-80% confluency (<35 subculture passages). All steps of the membrane preparation were performed on ice. […]
Radioligand binding assays were performed in 96-well polypropylene assay plates in a total assay volume of 200 μL containing 1.5-2 μg membrane protein in 50 mM HEPES pH 7.4, containing 0.025% BSA assay buffer. […] Non-specific binding was determined in the presence of 10 μM unlabeled MDL72222. […] Filter plates were washed three times with filtration buffer (ice-cold 50 mM HEPES, pH7.4) to remove unbound radioactivity. Plates were dried, 35 μL Microscint-20 liquid scintillation fluid (Packard BioScience Co., Meriden, Conn.) was added to each well and plates were counted in a Packard Topcount liquid scintillation counter (Packard BioScience Co., Meriden, Conn.). […]

[3] = molecular target: T2, hERG cardiac potassium channel (Homo sapiens, UniProt Q12809); assay: In vitro voltage clamp assay of inhibition of potassium ion current in whole cells expressing hERG; assay type: cell-based; conditions: pH 7.4, 5 minutes exposure, CHO-K1 cells
T2 construct: host or cells: CHO-K1
Description: Assay 4: In Vitro Voltage Clamp Assay of Inhibition of Potassium Ion Current in Whole Cells Expressing the hERG Cardiac Potassium Channel
CHO-K1 cells stably transfected with hERG cDNA were obtained from Gail Robertson at the University of Wisconsin. Cells were held in cryogenic storage until needed. Cells were expanded and passaged in Dulbecco's Modified Eagles Medium/F 12 supplemented with 10% fetal bovine serum and 200 μg/mL geneticin. Cells were seeded onto poly-D-lysine (100 μg/mL) coated glass coverslips, in 35 mm^2 dishes (containing 2 mL medium) at a density that enabled isolated cells to be selected for whole cell voltage-clamp studies. The dishes were maintained in a humidified, 5% CO2 environment at 37° C.
Extracellular solution was prepared at least every 7 days and stored at 4° C. when not in use. […]
The coverslips on which the cells were seeded were transferred to a recording chamber and perfused continuously. […] Peak current amplitudes during the repolarization phase were determined using pClamp software. […]
Peak current amplitudes during the repolarization phase were determined using pCLAMP software. […] The normalized current means and standard errors for each condition were calculated and plotted versus the time course of the experiment. […]

[4] = molecular target: T1, human 5-HT4(c) receptor; assay: Radioligand binding assay on 5-HT4(c) human receptors; parameters: expressed in transfected cells
Description: Assay 1: Radioligand Binding Assay on 5-HT4(c) Human Receptors a. Membrane Preparation 5-HT4(c)
Cells were grown under continuous selection pressure by the addition of 800 μg/mL geneticin (GIBCO-Invitrogen Corp.: Cat #10131) to the medium.
Cells were grown to roughly 60-80% confluency (<35 subculture passages). At 20-22 hours prior to harvesting, cells were washed twice and fed with serum-free DMEM. […] The cell monolayer was lifted by gentle mechanical agitation and trituration with a 25 mL pipette.
For the membrane preparation, cell pellets were resuspended in ice-cold 50 mM 4-(2-hydroxyethyl)-1-piperazineethanesulphonic acid (HEPES), pH 7.4 (membrane preparation buffer) (40 mL/total cell yield from 30-40 T225 flasks) and homogenized using a polytron disrupter (setting 19, 2×10 s) on ice. The resultant homogenates were centrifuged at 1200 g for 5 min at 4° C. […] Protein concentration of the membrane suspension was determined by the method of Bradford (Bradford, 1976). […]
Non-specific binding was determined in the presence of 1 μM unlabeled GR113808.
Binding data were analyzed by nonlinear regression analysis with the GraphPad Prism Software package (GraphPad Software, Inc., San Diego, Calif.) using the 3-parameter model for one-site competition. […] Results are expressed as the negative decadic logarithm of the Ki values, pKi.

T1 sequence (Q13639 1-380 isoform Q13639-4): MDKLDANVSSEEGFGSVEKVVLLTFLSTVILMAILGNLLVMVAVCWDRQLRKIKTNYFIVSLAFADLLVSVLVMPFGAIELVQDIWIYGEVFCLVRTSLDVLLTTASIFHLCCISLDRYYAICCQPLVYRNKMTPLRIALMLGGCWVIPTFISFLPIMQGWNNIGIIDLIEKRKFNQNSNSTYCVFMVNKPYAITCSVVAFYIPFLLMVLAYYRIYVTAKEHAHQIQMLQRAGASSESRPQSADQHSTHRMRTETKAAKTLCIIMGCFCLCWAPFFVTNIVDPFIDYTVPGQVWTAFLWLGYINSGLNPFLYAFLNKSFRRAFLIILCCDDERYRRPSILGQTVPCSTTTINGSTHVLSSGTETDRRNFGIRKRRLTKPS
T2 sequence (Q12809 whole entry): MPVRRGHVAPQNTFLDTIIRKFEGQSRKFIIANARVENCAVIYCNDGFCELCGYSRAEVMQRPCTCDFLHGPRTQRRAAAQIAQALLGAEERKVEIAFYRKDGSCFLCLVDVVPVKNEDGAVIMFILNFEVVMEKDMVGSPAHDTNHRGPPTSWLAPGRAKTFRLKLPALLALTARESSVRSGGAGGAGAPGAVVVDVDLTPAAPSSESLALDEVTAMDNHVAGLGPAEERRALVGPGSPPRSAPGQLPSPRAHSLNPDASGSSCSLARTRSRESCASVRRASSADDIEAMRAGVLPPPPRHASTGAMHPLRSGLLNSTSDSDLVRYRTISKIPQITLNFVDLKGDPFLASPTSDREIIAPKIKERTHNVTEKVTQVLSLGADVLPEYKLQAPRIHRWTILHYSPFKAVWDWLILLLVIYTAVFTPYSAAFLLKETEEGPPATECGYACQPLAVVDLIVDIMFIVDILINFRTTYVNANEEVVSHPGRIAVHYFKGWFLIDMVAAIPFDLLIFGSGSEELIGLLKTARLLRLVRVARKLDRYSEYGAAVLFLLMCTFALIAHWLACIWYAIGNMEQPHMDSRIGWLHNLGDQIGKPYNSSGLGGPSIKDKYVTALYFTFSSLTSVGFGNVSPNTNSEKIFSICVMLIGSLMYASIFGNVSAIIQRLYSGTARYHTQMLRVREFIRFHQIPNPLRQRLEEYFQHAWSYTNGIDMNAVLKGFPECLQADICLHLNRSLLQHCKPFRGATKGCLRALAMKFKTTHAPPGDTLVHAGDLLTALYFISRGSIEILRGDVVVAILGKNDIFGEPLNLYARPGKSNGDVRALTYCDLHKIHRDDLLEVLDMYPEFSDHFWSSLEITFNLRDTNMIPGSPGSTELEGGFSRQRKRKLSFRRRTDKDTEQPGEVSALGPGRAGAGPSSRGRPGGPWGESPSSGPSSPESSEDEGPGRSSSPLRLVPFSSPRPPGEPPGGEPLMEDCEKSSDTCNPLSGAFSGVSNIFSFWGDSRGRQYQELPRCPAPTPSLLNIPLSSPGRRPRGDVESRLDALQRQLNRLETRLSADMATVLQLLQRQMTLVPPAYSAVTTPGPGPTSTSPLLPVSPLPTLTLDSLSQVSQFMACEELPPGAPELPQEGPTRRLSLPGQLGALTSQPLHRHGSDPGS
Chain of human 5-HT3A receptor (P46098 24-478): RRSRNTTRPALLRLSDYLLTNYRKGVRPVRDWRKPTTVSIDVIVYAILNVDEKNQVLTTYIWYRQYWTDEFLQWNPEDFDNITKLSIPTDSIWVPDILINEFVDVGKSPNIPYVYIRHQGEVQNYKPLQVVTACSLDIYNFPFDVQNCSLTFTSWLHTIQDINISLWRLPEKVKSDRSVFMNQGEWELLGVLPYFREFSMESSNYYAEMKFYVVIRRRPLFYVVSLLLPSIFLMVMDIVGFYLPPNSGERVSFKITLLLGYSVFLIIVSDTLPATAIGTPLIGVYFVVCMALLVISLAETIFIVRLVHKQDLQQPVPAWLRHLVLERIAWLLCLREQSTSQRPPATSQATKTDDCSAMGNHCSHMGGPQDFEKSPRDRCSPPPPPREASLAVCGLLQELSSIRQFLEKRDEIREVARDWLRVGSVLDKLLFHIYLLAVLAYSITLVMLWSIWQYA

CC(=O)N1CCN(CCN2C3CCC2CC(NC(=O)c2nn(C(C)C)c4ccccc24)C3)CC1 [compound of formula I, 1-isopropyl-1H-indazole-3-carboxylic acid {(1S,3R,5R)-8-[2-(4-acetylpiperazin-1-yl)ethyl]-8-azabicyclo[3.2.1]oct-3-yl}amide]
EC50 [1]: < 31.6 nM
5-HT4/5-HT3 receptor subtype selectivity, ratio Ki(5-HT3A)/Ki(5-HT4(c)) [2]: greater than 500
inhibition at 5 min, 3 µM [3]: < 15%
Ki [4]: < 100 nM
